In the supplement of paper PMC13380429:

Columns and labels:
Settings in all cases: 72 h
[1] = test system: Caco-2; assay: cell viability relative to DMSO; higher = less toxic
[2] = test system: U2OS; assay: as above
[3] = test system: Vero E6; assay: as above
[4] = test system: HepG2; assay: as above
[5] = test system: Calu-3; assay: as above
[6] = test system: Caco-2; assay: drug sensitivity score (DSS) for viability; higher = more toxic; extreme values may be limits of the assay
[7] = test system: U2OS; assay: as above
[8] = test system: Vero E6; assay: as above
[9] = test system: HepG2; assay: as above
[10] = test system: Calu-3; assay: as above
[11] = test system: Caco-2; assay: relative viability EC50 (midpoint between 100% and the lowest measured viability); higher = less toxic
[12] = test system: U2OS; assay: as above
[13] = test system: Vero E6; assay: as above
[14] = test system: HepG2; assay: as above
[15] = test system: Calu-3; assay: as above

Row | Structure (SMILES) | cell viability ([1]; 1 nM) [%] | cell viability ([1]; 10 nM) [%] | cell viability ([1]; 100 nM) [%] | cell viability ([1]; 1000 nM) [%] | cell viability ([1]; 10000 nM) [%] | cell viability ([2]; 1 nM) [%] | cell viability ([2]; 10 nM) [%] | cell viability ([2]; 100 nM) [%] | cell viability ([2]; 1000 nM) [%] | cell viability ([2]; 10000 nM) [%] | cell viability ([3]; 1 nM) [%] | cell viability ([3]; 10 nM) [%] | cell viability ([3]; 100 nM) [%] | cell viability ([3]; 1000 nM) [%] | cell viability ([3]; 10000 nM) [%] | cell viability ([4]; 1 nM) [%] | cell viability ([4]; 10 nM) [%] | cell viability ([4]; 100 nM) [%] | cell viability ([4]; 1000 nM) [%] | cell viability ([4]; 10000 nM) [%] | cell viability ([5]; 1 nM) [%] | cell viability ([5]; 10 nM) [%] | cell viability ([5]; 100 nM) [%] | cell viability ([5]; 1000 nM) [%] | cell viability ([5]; 10000 nM) [%] | drug sensitivity score [6] | drug sensitivity score [7] | drug sensitivity score [8] | drug sensitivity score [9] | drug sensitivity score [10] | relative viability EC50 [11] [µM] | relative viability EC50 [12] [µM] | relative viability EC50 [13] [µM] | relative viability EC50 [14] [µM] | relative viability EC50 [15] [µM]
1 | O=C(O)[C@H]1CN(C/C=C/P(=O)(O)O)CCN1 [midafotel] | 102 | 101 | 97.4 | 102 | 98.3 | 96.3 | 104 | 99 | 103 | 106 | 95.5 | 93.9 | 95.6 | 91.9 | 106 | 97.5 | 94 | 104 | 93.1 | 107 | 97.6 | 94.8 | 105 | 111 | 97.4 | 0 | 0 | 0 | 0 | 0 | > 10 | > 10 | > 10 | > 10 | > 10
2 | CCOC(=O)[C@H](CCc1ccccc1)N[C@@H](C)C(=O)N1Cc2cc(OC)c(OC)cc2C[C@H]1C(=O)O [moexipril] | 106 | 96 | 101 | 89.3 | 98.2 | 96 | 102 | 92.8 | 100 | 95.7 | 96.2 | 102 | 96.6 | 96.9 | 102 | 95.8 | 98.6 | 96 | 95.5 | 92.2 | 97 | 97 | 107 | 111 | 104 | 0 | 0 | 0 | 0 | 0 | > 10 | > 10 | > 10 | > 10 | > 10
3 | NC(=O)Cc1cccc(C(=O)c2ccccc2)c1N [nepafenac] | 96.6 | 94.9 | 90.7 | 102 | 90.7 | 99.5 | 102 | 94.5 | 98.8 | 93.5 | 106 | 104 | 106 | 99.3 | 102 | 116 | 94.8 | 100 | 99.9 | 105 | 101 | 97.9 | 95.6 | 95.3 | 97.9 | 0 | 0 | 0 | 0 | 0 | > 10 | > 10 | > 10 | > 10 | > 10
4 | NC(=O)c1cc([N+](=O)[O-])cc([N+](=O)[O-])c1 [nitromide] | 97.5 | 95.2 | 95.8 | 104 | 104 | 100 | 98.4 | 101 | 96.5 | 107 | 98.3 | 96.6 | 93.6 | 94.5 | 108 | 112 | 95.1 | 99.7 | 119 | 104 | 93.9 | 101 | 95 | 105 | 112 | 0 | 0 | 0 | 0 | 0 | > 10 | > 10 | > 10 | > 10 | > 10
5 | CNC(=O)N(C)N=O [nitrosodimethylurea] | 85.7 | 106 | 94.7 | 86.9 | 116 | 99.8 | 95.7 | 95.1 | 98 | 108 | 93.6 | 92.4 | 95.4 | 86.3 | 97.9 | 88.6 | 100 | 103 | 100 | 97.7 | 111 | 103 | 100 | 91.6 | 109 | 0 | 0 | 0 | 0 | 0 | > 10 | > 10 | > 10 | > 10 | > 10
6 | C/C=C1/[C@H](O[C@@H]2O[C@H](CO)[C@@H](O)[C@H](O)[C@H]2O)OC=C(C(=O)OC)[C@H]1CC(=O)OCCc1ccc(O)c(O)c1 [oleuropein] | 101 | 108 | 99.9 | 101 | 88.8 | 105 | 98.7 | 101 | 95.1 | 97.8 | 98.8 | 103 | 98.7 | 105 | 95.2 | 101 | 97.1 | 98.1 | 108 | 84.4 | 90.8 | 98.8 | 101 | 102 | 93.6 | 0 | 0 | 0 | 0.1 | 0 | > 10 | > 10 | > 10 | > 10 | > 10
7 | Cc1nccn1CC1CCc2c(c3ccccc3n2C)C1=O (stereo not given) [ondansetron] | 102 | 99.4 | 94.1 | 81.2 | 104 | 96.5 | 99.4 | 103 | 99.4 | 102 | 101 | 97.4 | 103 | 95.6 | 103 | 95.6 | 83.5 | 97 | 105 | 93.3 | 84.8 | 90.1 | 81.6 | 97.6 | 89.2 | 0 | 0 | 0 | 0 | 0 | > 10 | > 10 | > 10 | > 10 | > 10
8 | C[C@@H]1CN(c2c(F)c(F)c3c(=O)c(C(=O)O)cn(C4CC4)c3c2F)C[C@H](C)N1 [orbifloxacin] | 110 | 105 | 109 | 103 | 94.6 | 99.5 | 97.5 | 95.3 | 97.6 | 101 | 105 | 110 | 101 | 100 | 94.5 | 98.2 | 110 | 94.8 | 100 | 92.1 | 113 | 97.9 | 112 | 92.8 | 107 | 0 | 0 | 0 | 0 | 0 | > 10 | > 10 | > 10 | > 10 | > 10
9 | CCn1cc(C(=O)O)c(=O)c2cc3c(cc21)OCO3 [oxolinic-acid] | 109 | 98.9 | 85.3 | 102 | 78.4 | 101 | 101 | 96.2 | 103 | 97 | 98.5 | 109 | 109 | 93.6 | 95 | 97 | 108 | 113 | 108 | 94.1 | 89.1 | 99.9 | 94.2 | 106 | 93.2 | 0.6 | 0 | 0 | 0 | 0 | > 10 | > 10 | > 10 | > 10 | > 10
10 | O=C(O)/C=C/c1ccc(Cn2ccnc2)cc1 [ozagrel] | 92.4 | 101 | 96.7 | 98.6 | 94.9 | 97.8 | 100 | 95.1 | 99.7 | 93.2 | 97.5 | 103 | 95.2 | 101 | 101 | 95 | 91.9 | 101 | 95.7 | 100 | 98 | 100 | 99.7 | 106 | 92.3 | 0 | 0 | 0 | 0 | 0 | > 10 | > 10 | > 10 | > 10 | > 10
11 | C1=N/C2=N/c3ccc(OCCN4CCCC4)c(c3)COC/C=C/COCc3cccc(c3)C(=C1)N2 [pacritinib] | 88.9 | 95.2 | 94.6 | 87.7 | 26 | 90.3 | 91.6 | 101 | 89.7 | 1.5 | 96.3 | 94.9 | 94.7 | 94.7 | 7.2 | 94.2 | 102 | 89.4 | 92.1 | 0.8 | 104 | 96.5 | 95.6 | 102 | 27.8 | 6.1 | 7.1 | 5.9 | 6.7 | 3.8 | 1.9 | 2.3 | 2.71 | 2.51 | 3.34
